Results published in patent US11246873B2, “Directed differentiation of oligodendrocyte precursor cells to a myelinating cell fate” (The Scripps Research Institute, priority 2011, dated 2022).
Entries after “also recorded” stand apart in the source; their conditions may differ.

Tests used:
[1] = system: rat optic nerve derived OPCs; test: High content imaging assay of OPC differentiation (MBP immunostaining, OPERA); format: cell-based; details: OPCs in differentiation medium (2 ng/ml PDGF), 6 days
Experimental: FIG. 1A-C. […] The calculated EC50 values were determined using appropriate Graphpad Prism 5.0 curve fitting software. […] OPCs were plated in 384 well plates at 1000 cells per well in OPC media containing basal PDGF-αα (2 ng/mL) and treated with serial dilutions of compounds. Following six days of compound treatment, cells were fixed and subjected to immunofluorescence analysis using anti-myelin basic protein (MBP) antibody. Image acquisition and quantification of MBP staining was performed using the OPERA imaging system.
FIG. 11A-B. Screen to identify inducers of OPC differentiation. (A) OPCs were maintained as proliferating A2B5-positive cells under basal growth conditions (Neurobasal medium, B27 supplement without Vitamin A, non-essential amino acids, L-Glutamine, 30 ng/ml PDGF). OPCs were plated in basal differentiation media (Neurobasal medium, B27 supplement without Vitamin A, non-essential amino acids, L-Glutamine, 2 ng/ml PDGF), treated with DMSO (<0.1%) or thyroid hormone (1 uM), fixed after 6 days in culture, and stained using antibodies for CNP, O4, or MBP. […] (B) Screen strategy using A2B5 positive OPCs cultured under basal differentiation conditions and treated with compounds for 6 days to identify small molecules that induce the differentiation of OPCs to mature, MBP expressing oligodendrocytes.
FIG. 12A-B. Primary hit confirmation. (A) Dose response assay used to confirm primary screening hits and determine potency (EC50). (EC50) is defined as the concentration that results in a half maximal increase in the percentage of total cells that express MBP as detected by immunostaining. […] Cells were fixed and immunostained using antibodies for MBP. Error bars represent standard deviations from 3 replicate experiments. […]
FIG. 21. […] OPCs were plated in differentiation medium (2 ng/ml PDGF) and treated with various concentrations of compounds for 6 days. Cells were fixed and immunostained for MBP.
A large-scale small molecule screen was conducted to identify small molecules that promote the differentiation of oligodendrocyte precursor cells (OPCs) to a mature myelinating fate. High content imaging was used to detect in-well differentiation of rat optic nerve derived OPCs. Rat optic nerve derived OPCs were expanded en masse in OPC media containing 30 ng/mL PDGFαα. To screen for small molecule inducers of OPC differentiation, OPCs (cultured for fewer than 15 passages) were plated in poly-D-lysine coated 384 well culture plates in OPC Media containing 2 ng/mL PDGFαα and immediately treated with compounds at a final concentration of 6 μM (0.6% DMSO). Compound treated cells were incubated at 37° C., 5% CO2 for 6 days. At the end of 6 days, cells were fixed in 4% paraformaldehyde and subjected to immunofluorescence analysis. Anti-Myelin Basic Protein monoclonal antibody (a.a. 129-138, clone 1 monoclonal antibody, Millipore) (1:1000 dilution) in blocking buffere solution (3% BSA, 0.3% Triton X-100 in PBS) was added to fixed and washed cells and incubated at 4° C. overnight.

[2] = system: caspase 3; test: Western blot of caspase 3 and cleaved caspase 3 in differentiated OPCs; details: benztropine 1.5 uM, thyroid hormone 1 uM, 6 days
Text: FIG. 32. Western blot analysis of cleaved caspase activity in differentiated OPCs. […] Total protein was isolated and analyzed by Western blot using a specific antibody for the expression of caspase 3 and cleaved caspase 3.

[3] = system: spinal cord of EAE mice; test: Histology of spinal cord sections from EAE mice (LFB, H&E, GST-π, NG2); format: in vivo, mouse; details: for LFB (myelin) staining in areas infiltrated by lymphocytes / lymphocyte / immune cell infiltration (H&E): 10 mg/kg, relapse phase
Text: FIG. 26. […] Spinal cords were isolated from mice representative of the average group scores during the relapse phase of EAE, sectioned and stained with Luxol Fast Blue and H&E (left panel) and Luxol Fast Blue only (right panel). Arrows point to regions of lymphocyte infiltration.

[4] = system: OPCs; test: Western blot of MBP and MOG in compound treated OPCs; format: cell-based, rat; details: OPCs treated 6 days
Text: FIG. 2A-C. Neurotransmitter receptor modulating agents induce the differentiation of OPCs to a myelinating oligodendrocyte cell fate. (A) Western blot analysis of OPCs treated with compounds at EC90 concentrations for 6 days. Total protein was isolated from cell pellets and probed for myelin basic protein (MBP) and myelin oligodendrocyte glycoprotein (MOG) using specific antibodies. (B-C) Quantitative RT-PCR (qRT-PCR) analysis of OPCs treated with compounds at EC90 concentrations for 6 days. Total RNA was isolated from cell pellets and reverse transcribed. MBP and MOG expression was quantified using specific probes and Taqman-based qRT-PCR. Expression was normalized to the internal controls β-actin and GAPDH. Fold change in gene expression over DMSO treated control cells is plotted for MBP (B) and MOG (C).
FIG. 13. […] After 6 days in culture, cells were analyzed for MBP and MOG expression by Western blot.

[5] = T-cell dependent and independent B-cell responses to TNP-KLH, TNP-LPS, TNP-Ficoll (serum IgG, IgM ELISA); format: in vivo, mouse; details: 10 mg/kg
Experimental: Serum was isolated at various time points and IgG and IgM levels were measured by ELISA. […] Error bars represent standard deviations from 3 replicate ELISAs performed on samples from 5 mice in each treatment group.
(§1) The primary immunological processes involved in MS and EAE are T-cell mediated and the primary treatment paradigms are based on immunomodulatory drugs (T. Kopadze et al., Arch Neurol, 63, 1572 (2006); J. M. Greer et al., J Immunol, 180, 6402 (2007), M. P. Pender and J. M. Greer, curr Allergy Asthma Rep, 7, 285 (2007)).

[6] = system: splenocytes of normal mice; test: Immune cell populations and cytokine production in splenocytes of normal mice; format: in vivo, mouse; details: 10 mg/kg i.p., 14 days; for cytokine production (IL2, IL10, TNF, IFN-γ producing CD4+ T-cells) / number of B cells: 10 mg/kg
Text: Total splenocytes were isolated from the mice, stimulated with PMA and ionomycin and analyzed for various populations of immune cells and cytokine secretion after 48 hrs. Protein transport was blocked in cells used for cytokine analysis using monoeiosin. […] Error bars indicate standard deviation of the mean within each group of 5 mice.
as §1

[7] = spinal cord sections of EAE mice

Row | Structure (SMILES) | induction of OPC differentiation (MBP staining) [1] | expression of cleaved caspase 3 [2] | LFB (myelin) staining in areas infiltrated by lymphocytes [3] | lymphocyte / immune cell infiltration (H&E) [3] | LFB (myelin) staining in areas infiltrated by lymphocytes ([3]; listed as Benztropine) | lymphocyte / immune cell infiltration (H&E) ([3]; listed as Benztropine) | number of GST-π positive mature oligodendrocytes ([3]; spinal cord of EAE mice, vehicle ~500) | GST-π positive cells versus vehicle [3, 7] | number of NG2 positive cells versus vehicle [3, 7] | MBP and MOG expression (Western blot) [4] | MBP and MOG expression (Western blot) ([4]; listed as Benztropine) | TNP-Ficoll induced B-cell responses (serum IgM and IgG) [5] | TNP-KLH induced B-cell responses (serum IgM and IgG) [5] | TNP-LPS induced B-cell responses (serum IgM and IgG) [5] | number of total splenocytes, CD4+, CD8+, CD4+/CD44Hi and CD8+/CD44Hi T-cells [6] | cytokine production (IL2, IL10, TNF, IFN-γ producing CD4+ T-cells) [6] | number of B cells [6] | cytokine production (IL2, IL10, TNF, IFN-γ producing CD4+ T-cells) ([6]; listed as Benztropine) | number of B cells ([6]; listed as Benztropine)
1 | CN1[C@@H]2CC[C@H]1C[C@@H](OC(c1ccccc1)c1ccccc1)C2 [benztropine] | promote OPC differentiation; also recorded: dose dependent activity | No expression of cleaved caspase 3 was detected | a large number of immune cell infiltrated areas stained positive for LFB | significant infiltration by H&E reactive immune cells | significantly increased LFB staining | does not block lymphocyte infiltration | 1100 per field | increased GST-π positive cells | did not differ significantly; also recorded: no change | positive | induces differentiation of OPCs to mature oligodendrocytes | no effect on IgG and IgM production | no effect on IgG and IgM production | no effect on IgG and IgM production | no effect | no effect on cytokine production | minor but significant decrease | no effect | no effect
2 | CN1CCN(CCCN2c3ccccc3Sc3ccc(C(F)(F)F)cc32)CC1 [trifluoperazine] | promote OPC differentiation |  |  |  |  |  |  |  |  |  |  |  |  |  |  |  |  |  | 
